Broadly, the IC50 is the concentration needed to halve the response being measured. As usually defined, the inhibition is how much of the control response was suppressed.

Bounds are passed on as bounds.

For one test, the target named is Voltage-gated L-type calcium channel (Homo sapiens, UniProt Q13936+Q13698+Q01668+O60840). The experiment in a line: Inhibition of L-type calcium channel by FLIPR assay. In kind it is functional.
As to `CCc1c2c(n(C)c1CC)CCC/C2=N\OC(=O)Nc1ccccc1`, the IC50 was 20 µM.
In the case of `CCc1c(C)[nH]c2c1/C(=N/OC(=O)Nc1ccccc1)CCC2`, the IC50 was over 30 µM.

Another test deals with T1, Potassium voltage-gated channel subfamily A member 5 (Homo sapiens, UniProt P22460). In words: Inhibition of Kv1.5 expressed in LTK- cells by whole cell patch clamp assay. The format is functional, cell-based.
T1 sequence (P22460 whole entry): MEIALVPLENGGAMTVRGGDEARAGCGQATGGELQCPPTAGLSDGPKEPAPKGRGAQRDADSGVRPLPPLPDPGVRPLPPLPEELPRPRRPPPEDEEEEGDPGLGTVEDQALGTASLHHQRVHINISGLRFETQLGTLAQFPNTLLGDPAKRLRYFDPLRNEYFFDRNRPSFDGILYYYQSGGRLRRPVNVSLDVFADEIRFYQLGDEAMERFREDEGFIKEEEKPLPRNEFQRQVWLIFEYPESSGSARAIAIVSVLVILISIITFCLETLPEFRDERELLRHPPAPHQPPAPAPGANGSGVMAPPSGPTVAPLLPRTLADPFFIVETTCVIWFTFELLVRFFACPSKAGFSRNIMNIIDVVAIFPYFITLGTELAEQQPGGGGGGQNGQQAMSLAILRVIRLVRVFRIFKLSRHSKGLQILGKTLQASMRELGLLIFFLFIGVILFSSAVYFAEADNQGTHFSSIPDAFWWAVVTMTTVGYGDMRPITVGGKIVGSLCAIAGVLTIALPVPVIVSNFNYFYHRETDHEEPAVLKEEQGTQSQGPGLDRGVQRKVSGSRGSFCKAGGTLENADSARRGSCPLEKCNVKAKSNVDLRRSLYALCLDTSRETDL
Turning to `CCc1c(C)[nH]c2c1/C(=N/OC(=O)Nc1ccc(F)cc1)CCC2`, 275 nM corresponded to half-maximal inhibition (IC50).
The molecule `CCc1c2c(n(C)c1CC)CCC/C2=N\OC(=O)Nc1ccccc1` displayed an IC50 of 21 nM.
Same read-out and setting: the value for `CCc1c(C)[nH]c2c1/C(=N/OC(=O)NCCc1ccccn1)CCC2` was 547 nM; that for `CCc1c2c(n(C)c1C)CCC/C2=N\OC(=O)Nc1ccc(C(C)=O)cc1` was 368 nM; that for `CCc1c(C)[nH]c2c1/C(=N/OC(=O)Nc1ccc(SC)cc1)CCC2` was 350 nM.
The same measure, in the same setting: the value for `CCc1c(C)[nH]c2c1/C(=N/OC(=O)Nc1ccccc1)CCC2` was 67 nM.

A further test is filed under the species Homo sapiens. The experiment in a line: Selectivity for Kv1.5 compared to L-type calcium channel. In kind it is functional.
As for `CCc1c2c(n(C)c1CC)CCC/C2=N\OC(=O)Nc1ccccc1`, the Ratio was over 450.
Consider `CCc1c(C)[nH]c2c1/C(=N/OC(=O)Nc1ccccc1)CCC2`, for which the Ratio is over 450.

The species entered for another test is Homo sapiens. The experiment in a line: Selectivity for Kv1.5 compared to hERG. In kind it is functional. (The hERG channel carries a current that helps repolarise heart muscle cells.)
For `CCc1c2c(n(C)c1CC)CCC/C2=N\OC(=O)Nc1ccccc1`, the Ratio is over 450.
The same measure, in the same setting: the value for `CCc1c(C)[nH]c2c1/C(=N/OC(=O)Nc1ccccc1)CCC2` was over 450.

The target in a further test is Voltage-gated inwardly rectifying potassium channel KCNH2 (Homo sapiens, UniProt Q12809). The experiment in a line: Inhibition of hERG expressed in HEK cells by whole cell patch clamp assay. The format is toxicity, cell-based, HEK293.
Voltage-gated inwardly rectifying potassium channel KCNH2, sequence (Q12809 whole entry): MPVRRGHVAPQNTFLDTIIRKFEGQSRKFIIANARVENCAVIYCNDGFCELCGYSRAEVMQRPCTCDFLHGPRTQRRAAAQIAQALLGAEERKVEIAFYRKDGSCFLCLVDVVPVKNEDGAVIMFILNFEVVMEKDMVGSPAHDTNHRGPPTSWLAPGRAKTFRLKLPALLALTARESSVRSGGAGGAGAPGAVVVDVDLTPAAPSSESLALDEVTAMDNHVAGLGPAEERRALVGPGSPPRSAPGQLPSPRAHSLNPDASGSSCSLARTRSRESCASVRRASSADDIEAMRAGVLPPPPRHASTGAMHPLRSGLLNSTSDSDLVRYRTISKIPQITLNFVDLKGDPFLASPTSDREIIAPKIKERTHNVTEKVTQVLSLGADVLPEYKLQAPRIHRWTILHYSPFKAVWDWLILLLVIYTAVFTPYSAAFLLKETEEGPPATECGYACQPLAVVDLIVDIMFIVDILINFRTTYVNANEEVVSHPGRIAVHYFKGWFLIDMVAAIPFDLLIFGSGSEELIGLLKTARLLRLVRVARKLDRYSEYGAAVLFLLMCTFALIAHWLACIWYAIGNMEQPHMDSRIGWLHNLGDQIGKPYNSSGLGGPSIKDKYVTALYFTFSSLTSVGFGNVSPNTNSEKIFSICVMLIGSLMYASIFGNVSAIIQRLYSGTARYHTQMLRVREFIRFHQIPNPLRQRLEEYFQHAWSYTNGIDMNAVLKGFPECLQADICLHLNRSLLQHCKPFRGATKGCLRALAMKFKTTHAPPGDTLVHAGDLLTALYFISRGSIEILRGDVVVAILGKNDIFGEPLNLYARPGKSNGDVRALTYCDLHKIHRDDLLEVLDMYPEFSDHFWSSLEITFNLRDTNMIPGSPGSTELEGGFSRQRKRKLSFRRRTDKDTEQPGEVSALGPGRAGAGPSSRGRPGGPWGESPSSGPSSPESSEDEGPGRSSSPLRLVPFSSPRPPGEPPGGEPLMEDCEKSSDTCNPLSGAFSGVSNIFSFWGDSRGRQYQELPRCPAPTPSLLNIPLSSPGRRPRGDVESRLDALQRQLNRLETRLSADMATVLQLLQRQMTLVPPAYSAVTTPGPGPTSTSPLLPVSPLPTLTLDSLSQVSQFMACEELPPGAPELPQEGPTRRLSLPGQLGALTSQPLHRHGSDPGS
The molecule `CCc1c2c(n(C)c1CC)CCC/C2=N\OC(=O)Nc1ccccc1` displayed an IC50 of over 30 µM.
Still for that read-out and setting: for `CCc1c(C)[nH]c2c1/C(=N/OC(=O)Nc1ccccc1)CCC2` the value was over 30 µM.

Another test deals with T1, Potassium voltage-gated channel subfamily A member 5. In words: Inhibition of Kv1.5 expressed in LTK- cells by whole cell patch clamp assay at 1uM. In kind it is functional, cell-based. On the technique in general: Patch clamp records ionic current or voltage across a cell membrane.
`CC(=O)c1ccc(NC(=O)O/N=C2\CCCc3[nH]c(C)c(C)c32)cc1` came in with an inhibition of 60%.
The same measure, in the same setting: the value for `CCc1c(C)[nH]c2c1/C(=N/OC(=O)NCc1ccccc1)CCC2` was 70%; that for `CCc1c(C)[nH]c2c1/C(=N/OC(=O)NCCc1cccnc1)CCC2` was 25%.
On the same count and under the same terms, for `CCc1c2c(n(C)c1CC)CCC/C2=N\OC(=O)Nc1ccc(C(C)=O)cc1` the value was 92%.
In turn, `O=C(Nc1ccc(Cl)cc1)O/N=C1\CCCC2=C1C1CCCC1N2` (stereo unspecified) gave an inhibition of 58%.
Still for that read-out and setting: the value for `O=C(Nc1ccccc1)O/N=C1\CCCC2=C1C1CCCC1N2` (stereo unspecified) was 79%.
On the same count and under the same terms, for `CCc1c(C)[nH]c2c1/C(=N/OC(=O)Nc1ccc(F)cc1)CCC2` the value was 90%.
The same measure, in the same setting: for `CCc1c(C)[nH]c2c1/C(=N/OC(=O)Nc1ccc(Cl)cc1)CCC2` the value was 91%.
Molecule `Cc1[nH]c2c(c1C)/C(=N/OC(=O)Nc1ccccc1)CCC2` displayed an inhibition of 57%.
With `CCc1c(C)[nH]c2c1/C(=N/OC(=O)Nc1ccc(C#N)cc1)CCC2`, the inhibition was determined as 95%.
On the same count and under the same terms, for `CCc1c(C)[nH]c2c1/C(=N/OC(=O)Nc1ccc(OC)cc1)CCC2` the value was 90%; for `CCc1c2c(n(C)c1CC)CCC/C2=N\OC(=O)Nc1ccccc1`, 99%; for `CCc1c(C)[nH]c2c1/C(=N/OC(=O)Nc1cccc(SC)c1)CCC2`, 73%.
The same measure, in the same setting: for `CCc1c(C)[nH]c2c1/C(=N/OC(=O)NCCc1ccccn1)CCC2` the value was 91%.
Still for that read-out and setting: the value for `CCc1c(C)[nH]c2c1/C(=N/OC(=O)Nc1ccccc1SC)CCC2` was 41%; that for `CCc1c(C)[nH]c2c1/C(=N/OC(=O)Nc1ccc(C(C)=O)cc1)CCC2` was 91%.
Take `CC(=O)c1ccc(NC(=O)O/N=C2\CCCc3c2c(C(C)C)c(C)n3C)cc1`: the inhibition came to 96%.
Same read-out and setting: the value for `CCc1c(C)[nH]c2c1/C(=N/OC(=O)NCCc1ccccc1)CCC2` was 76%.
Same read-out and setting: for `CCc1c2c(n(C)c1C)CCC/C2=N\OC(=O)Nc1ccc(C(C)=O)cc1` the value was 96%; for `CCc1c(C)[nH]c2c1/C(=N/OC(=O)Nc1ccc(C(C)(C)C)cc1)CCC2`, 6%.
Still for that read-out and setting: for `CCc1c2c(n(C)c1C)CCC/C2=N\OC(=O)Nc1ccccc1` the value was 77%; for `Cc1[nH]c2c(c1C)/C(=N/OC(=O)Nc1ccc(Cl)cc1)CCC2`, 78%; for `CCc1[nH]c2c(c1CC)/C(=N/OC(=O)Nc1ccc(Cl)cc1)CCC2`, 87%.
With `CCc1c(C)[nH]c2c1/C(=N/OC(=O)NCCc1ccncc1)CCC2`, the inhibition was determined as 20%.
Same read-out and setting: the value for `CCc1[nH]c2c(c1CC)/C(=N/OC(=O)Nc1ccccc1)CCC2` was 84%; that for `CCc1c2c(n(CC)c1C)CCC/C2=N\OC(=O)Nc1ccc(C(C)=O)cc1` was 71%; that for `CC(=O)c1ccc(NC(=O)O/N=C2\CCCC3=C2C2CCCC2N3)cc1` (stereo unspecified) was 79%.
The molecule `CCc1c(C)[nH]c2c1/C(=N/OC(=O)Nc1ccc(C)cc1)CCC2` yielded an inhibition of 85%.
Still for that read-out and setting: for `CCc1c(C)[nH]c2c1/C(=N/OC(=O)Nc1ccc(C(C)C)cc1)CCC2` the value was 51%.
Still for that read-out and setting: the value for `CCc1c(C)[nH]c2c1/C(=N/OC(=O)Nc1ccc(SC)cc1)CCC2` was 90%; that for `CCc1c(C)[nH]c2c1/C(=N/OC(=O)Nc1ccccc1)CCC2` was 91%.
The molecule `CCc1c2c(n(CC)c1C)CCC/C2=N\OC(=O)Nc1ccccc1` registered an inhibition of 35%.

These data come from ChEMBL document CHEMBL1137274, “Discovery and synthesis of tetrahydroindolone-derived carbamates as Kv1.5 blockers” (Bioorg Med Chem Lett, 2006).
